Laboratory results: US9073813B2, “Process for the preparation of protoescigenin” (INSTYTUT FARMACEUTYCZNY, priority 2011, dated 2015)

Assay: Thermal stability of the crystalline form (X-ray diffraction over temperature loop 25° C.→30 min at 110° C.→25° C.)
Assay type: physicochemical
Procedure: Protoescigenin monohydrate is stable under ambient conditions, up to 100° C. X-ray diffraction measurements of monohydrate were done at the following temperature loop: 25° C.→30 min at 110° C.→25° C.
X-ray powder diffraction (XRPD) studies were performed by means of the MiniFlex diffractometer (Rigaku Coporation, Tokyo Japan) using CuKα radiation (λ=1.54056 Å) with following parameters: • Scanning range 2θ: from 3° to 40° • Scanning speed: 0.5°/min • Measurement step: 2θ: 0.02° • Measurement temperature: ambient temperature • Detector: scintillator

CC1(C)CC2C3=CCC4[C@@]5(C)CC[C@H](O)[C@](C)(CO)C5CC[C@@]4(C)[C@]3(C)C[C@@H](O)[C@@]2(CO)[C@@H](O)[C@@H]1O (some centres unmarked) [Protoescigenin monohydrate, protoescigenin monohydrate]
form change on heating (X-ray diffraction) (after heating for 30 min at 110° C., loop 25° C.→110° C.→25° C.): changes to a different form, called form V
stable under ambient conditions, up to (temperature) (solid state, ambient conditions): up to 100 °C
